# Results taken from patent US9371337B2, “β-lactamase inhibitors” (The Regents of the University of California, priority 2011, dated 2016).
# pIC50, pKi: −log10 of the molar value. Where “and” joins values, the source holds several entries; their conditions need not be identical. Equal entries are not always repeated. Where two headings read alike, the source gives them in different places.
# Columns and labels:
# AmpC β-lactamase [1] = molecular target: T1, AmpC β-lactamase (Escherichia coli, UniProt P00811); test: biochemical; format: biochemical
# T1 construct: made in house
# Description: FIG. 18. Representative IC50 curves. […] IC50 curves were obtained by measuring rates (in duplicates) at different inhibitor concentrations (x-axis) and by determining the residual activity (y-axis, in percentage). IC50 values were determined by non-linear regression and Ki values calculated using GraphPad software assuming competitive inhibition.
# Sulfonamidomethaneboronic acids were dissolved in 100% DMSO at a concentration of 100 mM; more diluted stocks were prepared as necessary. […] The enzyme was expressed and purified as described (Usher, K. C. et al., Biochemistry 1998, 37, 16082-16092) and CENTA was purchased from Tydock Pharma.
# Kinetic measurements were run at room temperature in 50 mM sodium-cacodylate pH 6.5 in the presence of 0.01% Triton-X to prevent non-specific inhibition via compound aggregation. […] (Kettner, C. A. and Shenvi, A. B., J. Biol. Chem. 1984, 259, 15106-15114) Reactions were performed in 1 mL cuvettes with 60 μM CENTA and initiated by adding 1.2 nM enzyme. […] (Weston, G. S. et al., J. Med. Chem. 1998, 41, 4577-4586) The first 180 sec of each reaction were used to measure initial rates. IC50 values were obtained by fitting binding data to a sigmoidal dose-response equation using GraphPad Prism (GraphPad software, Inc). Ki values were determined by the use of Cheng-Prusoff equation. (Cheng, Y. and Prusoff, W. H., Biochem. Pharmacol. 1973, 22, 3099-3108)
# [2] = molecular target: T2, α-chymotrypsin (bovine pancreatic) (Bos taurus, UniProt P00766); test: α-Chymotrypsin inhibition; format: biochemical
# T2 construct: purchased Sigma-Aldrich
# Description: α-Chymotrypsin assays were performed in 50 mM Tris buffer pH 7.5 with 0.01% Triton-X. Inhibitor and 0.001 mg/mL enzyme were incubated at their final concentration for 10 min before the reaction was initiated by the addition of 200 μM N-succinyl-Ala-Ala-Pro-Phe p-nitroanilide and monitored at 410 nm.
# (§1) To assess the selectivity of the new molecules we determined Ki values against three common serine proteases, Trypsin, Elastase and α-Chymotrypsin, as well as that of a class A β-lactamase, CTX-M-9 (Table 10) (Pouvreau L, et al. (1998), FEBS Lett 423:167-172; Del Mar E G, et al. (1980), Biochemistry 19:468-472; Rodriguez-Martinez J A, et al. (2009), Biotechnol Lett 31:883-887; Chen Y, et al. (2005), J Mol Biol 348:349-362).
# AmpC β-lactamase [3] = molecular target: T1, AmpC β-lactamase; format: biochemical
# Trypsin [4] = molecular target: T3, Trypsin (UniProt P00760); test: Trypsin inhibition; format: biochemical; settings: Table 10, Trypsin
# T3 construct: IC50 (Estimated from single concentration measurement); Ki
# T3 sequence (P00760 1-246): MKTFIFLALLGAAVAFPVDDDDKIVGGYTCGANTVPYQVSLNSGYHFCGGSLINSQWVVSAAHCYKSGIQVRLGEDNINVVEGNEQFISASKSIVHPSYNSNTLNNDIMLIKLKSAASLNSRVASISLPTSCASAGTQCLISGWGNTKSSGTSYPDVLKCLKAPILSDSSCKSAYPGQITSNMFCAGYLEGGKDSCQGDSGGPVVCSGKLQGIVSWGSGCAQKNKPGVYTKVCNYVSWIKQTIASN
# Excerpt: as §1
# [5] = system: clinical strains resistant to third-generation cephalosporins; test: MIC distribution of third-generation cephalosporins alone or with compounds over clinical strains; format: cell-based
# Description: The anti-resistance activity of inhibitors was investigated by the determination of the minimum inhibitory concentrations (MICs) of the β-lactam/inhibitor combination necessary to inhibit the growth of clinically-isolated bacteria resistant to third-generation cephalosporins via expression of class A or class C β-lactamases (Table 6).
# Susceptibility testing was performed and interpreted following the guidelines of CLSI. (Clinical and Laboratory Standards Institute, Performance standards for antimicrobial susceptibility testing, 20th Informational Supplement, M100-S20 2010) The compounds were dissolved in 50% DMSO, and dilutions were performed using Muller-Hinton medium. An adequate final concentration was obtained to determine the minimum inhibitory concentrations (MICs). The concentration of DMSO was maintained below 5%. The inhibitors were tested for synergy with the third-generation β-lactams ceftazidime and cefotaxime against several clinical bacteria. The ratio of β-lactams to inhibitors was 1:4. Each value reported reflects the average of three independent experiments. […] The Friedman's test and the Wilcoxon signed rank test were used to compare MIC values. Statistical significance was established at p<0.05.
# Trypsin [6] = test: Trypsin inhibition; format: biochemical; settings: Table 4h, Trypsin vs AmpC
# Trypsin [7] = molecular target: T3, Trypsin; test: Trypsin inhibition; format: biochemical
# CTX-M-9 β-lactamase = CTX-M-9 β-lactamase (Escherichia coli, UniProt Q9L5C8); test: biochemical; format: biochemical
# Description: Reactions were initiated by the addition of 0.3 nM enzyme and monitored at 405 nm.
# as §1
# Elastase = Elastase inhibition; format: biochemical; settings: Table 4h, Elastase vs AmpC
# Excerpt: as §1
# [8] = third-generation cephalosporins in combination with the compound
# Sequence of CTX-M-9 β-lactamase (Q9L5C8 29-291): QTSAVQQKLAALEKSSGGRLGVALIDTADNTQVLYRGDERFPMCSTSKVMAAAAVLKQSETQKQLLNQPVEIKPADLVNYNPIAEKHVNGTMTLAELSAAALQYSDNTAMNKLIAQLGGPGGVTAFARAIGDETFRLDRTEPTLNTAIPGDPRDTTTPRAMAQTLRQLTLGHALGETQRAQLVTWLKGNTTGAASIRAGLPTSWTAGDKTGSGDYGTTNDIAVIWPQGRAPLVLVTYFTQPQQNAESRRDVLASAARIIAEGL
# T1 sequence (P00811 20-377): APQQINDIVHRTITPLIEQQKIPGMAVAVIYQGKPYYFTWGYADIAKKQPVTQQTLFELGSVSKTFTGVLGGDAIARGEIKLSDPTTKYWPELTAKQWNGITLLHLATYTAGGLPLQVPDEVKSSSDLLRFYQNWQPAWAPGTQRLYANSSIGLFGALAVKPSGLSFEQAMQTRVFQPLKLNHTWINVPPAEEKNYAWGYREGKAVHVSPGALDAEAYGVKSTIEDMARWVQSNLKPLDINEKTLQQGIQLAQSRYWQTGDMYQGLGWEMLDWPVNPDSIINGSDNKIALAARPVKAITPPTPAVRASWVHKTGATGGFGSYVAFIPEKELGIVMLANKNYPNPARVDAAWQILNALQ
compound,measurement,setting,value
"CCOc1ccc2ccccc2c1S(=O)(=O)NCB(O)O [Compound 11, (2-Ethoxy-naphthalene-1-sulfonylamino)methaneboronic acid]",pKi,AmpC β-lactamase [1]; read-out: Ki,6.17
"C[C@H](NS(=O)(=O)Cc1ccccc1)B(O)O [GBS34, (1R)-1-(Phenylmethanesulfonylamino)-1-ethaneboronic acid]",pKi,"AmpC β-lactamase [1]; Ki Vs AmpC, Table 7",6.51
"O=C(Cc1cccs1)N[C@H](B(O)O)c1cccc(C(=O)O)c1 [SM23, reference compound]",Ligand efficiency,AmpC β-lactamase [1]; Table 5,0.55
"CC(C)[C@H](NS(C)(=O)=O)B(O)O [CR175, (1R)-1-(Methylsulfonylamino)-2-methylpropaneboronic acid]",pKi,"AmpC β-lactamase [1]; Ki Vs AmpC, Table 7",4.00
Pinacol(3-cyanopropane-1-sulfonylamino)methaneboronate [CR135],pKi,"AmpC β-lactamase [1]; Table 7, read-out: Ki Vs AmpC",6.70
"CC(C)[C@H](NS(=O)(=O)Cc1ccccc1)B(O)O [CR173, (1R)-1-(Phenylmethanesulfonylamino)-2-methylpropaneboronic acid]",pKi,"AmpC β-lactamase [1]; Ki Vs AmpC, Table 7",4.89
Cc1ccc(S(=O)(=O)N(C)CB(O)O)cc1 [CR14],pKi,"AmpC β-lactamase [1]; Ki Vs AmpC, Table 7",6.20
"O=C(O)c1cccc(CS(=O)(=O)NCB(O)O)c1 [CR167, [3-(Carboxyphenyl)methanesulfonylamino]methaneboronic acid]",activity at 100 µM,"[2]; Table 4b, 100 μM inhibitor, read-out: Percentage activity with 100 μM inhibitor",99%
same,potency estimated from few doses,"[2]; Table 4e, read-out: IC50 (Estimated from single concentration measurement)",9900 µM
same,pKi,"[2]; Table 10, α-Chymotrypsin",2.61
same,Selectivity vs AmpC (comparison of IC50 values),"[2]; Table 4h, Chymotrypsin vs AmpC",1523077
same,inhibition at 100 µM,[2]; read-out: Percentage inhibition with 100 μM inhibitor,1%
same,type of inhibition,"AmpC β-lactamase [3]; Lineweaver-Burk analysis, competition with substrate CENTA",competitive
same,"time dependence of inhibition (incubation effect, off-rate)",AmpC β-lactamase [3]; enzyme incubation and dilution experiments,incubation effect owing to slow off-rates
same,pKi,Trypsin [4],3.46
same,clinical isolates for which MICs dropped into the susceptible range (MICs≦1 μg/mL),[5]; cephalosporins combined with the compound,75%
same,MIC 25% percentile,[5]; [8],0.5 µg/mL
same,MIC 75% percentile,[5]; [8],1.5 µg/mL
same,Selectivity vs AmpC (comparison of IC50 values),Trypsin [6],292308
same,Percentage activity with 100 μM inhibitor,"Trypsin [7]; Table 4b, 100 μM inhibitor",95
same,Percentage inhibition with 100 μM inhibitor,"Trypsin [7]; Table 4c, 100 μM inhibitor",5
same,potency estimated from few doses,"Trypsin [7]; read-out: IC50 (Estimated from single concentration measurement), Table 4e",1900 µM
same,pIC50,CTX-M-9 β-lactamase,6.90
same,Selectivity vs AmpC (comparison of IC50 values),"CTX-M-9 β-lactamase; Table 4h, CTX-M-9 vs AmpC",19
same,selectivity towards AmpC versus CTX-M-9 β-lactamase,CTX-M-9 β-lactamase; ratio of Ki values,~30 fold
same,potency estimated from few doses,CTX-M-9 β-lactamase; read-out: IC50 (Estimated from single concentration measurement),0.162 µM
same,pKi,CTX-M-9 β-lactamase; read-out: Ki,7.35
same,inhibition at 16 µM,CTX-M-9 β-lactamase; read-out: Percentage inhibition with 16 μM inhibitor,99%
same,pIC50,AmpC β-lactamase [1],8.19
same,pKi,AmpC β-lactamase [1]; Ki,8.89 to 9.10 and 8.89
same,pKi,"AmpC β-lactamase [1]; Ki (from multi- or single concentration measurements), Table 4g",8.89
same,pKi,"AmpC β-lactamase [1]; Ki Vs AmpC, Table 7",8.89
same,pKi,"AmpC β-lactamase [1]; Ki vs AmpC, Table 8",8.89
same,pKi,"AmpC β-lactamase [1]; Ki, Table 5",8.89
same,pKi,"AmpC β-lactamase [1]; Ki, Table 10, AmpC",8.89
same,Ligand efficiency,AmpC β-lactamase [1]; Table 5,0.66
same,Selectivity vs AmpC (comparison of IC50 values),Elastase,22139
O=[N+]([O-])c1cccc(CS(=O)(=O)NCB(O)O)c1 [Compound 6],pKi,"AmpC β-lactamase [1]; Table 7, read-out: Ki Vs AmpC",6.72
Cc1ccc(S(=O)(=O)N(CB(O)O)C(C)(C)C)cc1 [CR17],pKi,"AmpC β-lactamase [1]; Ki Vs AmpC, Table 7",5.60
"CS(=O)(=O)NCB(O)O [Compound 3, Pinacol(methanesulfonylamino)methaneboronate]",Ligand efficiency,AmpC β-lactamase [1],0.91
same,pKi,"AmpC β-lactamase [1]; Ki vs AmpC, Table 8",6.10
same,improvement of potency compared to the carboxamide analog,AmpC β-lactamase [1]; ratio of Ki values,23 fold
same,pKi,AmpC β-lactamase [1]; read-out: Ki,6.10
